Laboratory results from the NIST ThermoML archive (doi:10.1021/je060283w).
± gives the expanded uncertainty stated by the source.

Test: relative permittivity at zero frequency (dimensionless)
Details: Parallel plate capacitor

COC [dimethyl ether]
Details	relative permittivity at zero frequency
303.7 K, 180 kPa, Gas	1.016 ± 0.02
303.7 K, 320 kPa, Gas	1.025 ± 0.02
303.7 K, 440 kPa, Gas	1.032 ± 0.02
303.7 K, 460 kPa, Gas	1.034 ± 0.02
303.7 K, 500 kPa, Gas	1.037 ± 0.022
303.7 K, 530 kPa, Gas	1.039 ± 0.023
303.7 K, 660 kPa, Gas	1.084 ± 0.024
303.7 K, 6300 kPa, Liquid	5.34 ± 0.03
303.7 K, 8000 kPa, Liquid	5.37 ± 0.03
303.7 K, 10200 kPa, Liquid	5.41 ± 0.03
303.7 K, 12200 kPa, Liquid	5.44 ± 0.03
303.7 K, 14200 kPa, Liquid	5.47 ± 0.03
303.7 K, 16300 kPa, Liquid	5.5 ± 0.03
303.7 K, 17600 kPa, Liquid	5.52 ± 0.03
303.7 K, 20200 kPa, Liquid	5.56 ± 0.03
303.7 K, 22400 kPa, Liquid	5.59 ± 0.03
303.7 K, 24200 kPa, Liquid	5.62 ± 0.03
303.7 K, 25900 kPa, Liquid	5.64 ± 0.03
303.7 K, 27500 kPa, Liquid	5.66 ± 0.03
313.3 K, 80 kPa, Gas	1.011 ± 0.02
313.3 K, 150 kPa, Gas	1.015 ± 0.02
313.3 K, 460 kPa, Gas	1.034 ± 0.02
313.3 K, 510 kPa, Gas	1.037 ± 0.02
313.3 K, 560 kPa, Gas	1.041 ± 0.02
313.3 K, 770 kPa, Gas	1.057 ± 0.023
313.3 K, 870 kPa, Gas	1.142 ± 0.04
313.3 K, 2300 kPa, Liquid	5 ± 0.04
313.3 K, 4400 kPa, Liquid	5.05 ± 0.03
313.3 K, 6300 kPa, Liquid	5.1 ± 0.03
313.3 K, 8300 kPa, Liquid	5.14 ± 0.03
313.3 K, 10200 kPa, Liquid	5.16 ± 0.03
313.3 K, 12200 kPa, Liquid	5.2 ± 0.03
313.3 K, 14300 kPa, Liquid	5.24 ± 0.03
313.3 K, 16300 kPa, Liquid	5.27 ± 0.03
313.3 K, 18000 kPa, Liquid	5.3 ± 0.03
313.3 K, 20400 kPa, Liquid	5.33 ± 0.03
313.3 K, 22000 kPa, Liquid	5.35 ± 0.03
313.3 K, 24300 kPa, Liquid	5.39 ± 0.03
313.3 K, 26100 kPa, Liquid	5.41 ± 0.03
313.3 K, 28200 kPa, Liquid	5.44 ± 0.03
313.3 K, 29600 kPa, Liquid	5.46 ± 0.03
323 K, 50 kPa, Gas	1.01 ± 0.02
323 K, 100 kPa, Gas	1.012 ± 0.02
323 K, 240 kPa, Gas	1.02 ± 0.02
323 K, 450 kPa, Gas	1.033 ± 0.02
323 K, 530 kPa, Gas	1.038 ± 0.02
323 K, 700 kPa, Gas	1.049 ± 0.021
323 K, 1080 kPa, Gas	1.118 ± 0.022
323 K, 1300 kPa, Liquid	4.72 ± 0.04
323 K, 2200 kPa, Liquid	4.74 ± 0.04
323 K, 4200 kPa, Liquid	4.8 ± 0.04
323 K, 6200 kPa, Liquid	4.85 ± 0.03
323 K, 8200 kPa, Liquid	4.89 ± 0.03
323 K, 10400 kPa, Liquid	4.93 ± 0.03
323 K, 12400 kPa, Liquid	4.97 ± 0.03
323 K, 14200 kPa, Liquid	5.01 ± 0.03
323 K, 16400 kPa, Liquid	5.04 ± 0.03
323 K, 18300 kPa, Liquid	5.07 ± 0.03
323 K, 19800 kPa, Liquid	5.1 ± 0.03
323 K, 22000 kPa, Liquid	5.13 ± 0.03
323 K, 24000 kPa, Liquid	5.17 ± 0.03
323 K, 26300 kPa, Liquid	5.2 ± 0.03
323 K, 27900 kPa, Liquid	5.23 ± 0.03
323 K, 29400 kPa, Liquid	5.25 ± 0.03
323 K, 31200 kPa, Liquid	5.27 ± 0.03
333.4 K, 430 kPa, Gas	1.03 ± 0.02
333.4 K, 460 kPa, Gas	1.031 ± 0.02
333.4 K, 540 kPa, Gas	1.036 ± 0.02
333.4 K, 710 kPa, Gas	1.047 ± 0.02
333.4 K, 850 kPa, Gas	1.057 ± 0.02
333.4 K, 1050 kPa, Gas	1.071 ± 0.021
333.4 K, 1380 kPa, Gas	1.122 ± 0.021
333.4 K, 2200 kPa, Liquid	4.46 ± 0.04
333.4 K, 4300 kPa, Liquid	4.52 ± 0.04
333.4 K, 6400 kPa, Liquid	4.58 ± 0.03
333.4 K, 8300 kPa, Liquid	4.62 ± 0.03
333.4 K, 10200 kPa, Liquid	4.67 ± 0.03
333.4 K, 12200 kPa, Liquid	4.71 ± 0.03
333.4 K, 14000 kPa, Liquid	4.74 ± 0.03
333.4 K, 15800 kPa, Liquid	4.78 ± 0.03
333.4 K, 17200 kPa, Liquid	4.81 ± 0.03
333.4 K, 22000 kPa, Liquid	4.89 ± 0.03
333.4 K, 23800 kPa, Liquid	4.92 ± 0.03
333.4 K, 25800 kPa, Liquid	4.95 ± 0.03
333.4 K, 27600 kPa, Liquid	4.97 ± 0.03
333.4 K, 29400 kPa, Liquid	4.99 ± 0.03
343.2 K, 60 kPa, Gas	1.01 ± 0.02
343.2 K, 120 kPa, Gas	1.013 ± 0.02
343.2 K, 220 kPa, Gas	1.018 ± 0.02
343.2 K, 390 kPa, Gas	1.027 ± 0.02
343.2 K, 430 kPa, Gas	1.029 ± 0.02
343.2 K, 490 kPa, Gas	1.032 ± 0.02
343.2 K, 550 kPa, Gas	1.035 ± 0.02
343.2 K, 610 kPa, Gas	1.039 ± 0.02
343.2 K, 740 kPa, Gas	1.044 ± 0.02
343.2 K, 930 kPa, Gas	1.059 ± 0.02
343.2 K, 1090 kPa, Gas	1.069 ± 0.02
343.2 K, 1240 kPa, Gas	1.08 ± 0.02
343.2 K, 1550 kPa, Gas	1.106 ± 0.021
343.2 K, 1730 kPa, Gas	1.166 ± 0.025
343.2 K, 2600 kPa, Liquid	4.21 ± 0.04
343.2 K, 4000 kPa, Liquid	4.25 ± 0.04
343.2 K, 6000 kPa, Liquid	4.32 ± 0.04
343.2 K, 8200 kPa, Liquid	4.38 ± 0.03
343.2 K, 10200 kPa, Liquid	4.43 ± 0.03
343.2 K, 12200 kPa, Liquid	4.48 ± 0.03
343.2 K, 14400 kPa, Liquid	4.52 ± 0.03
343.2 K, 16300 kPa, Liquid	4.56 ± 0.03
343.2 K, 18000 kPa, Liquid	4.59 ± 0.03
343.2 K, 20200 kPa, Liquid	4.64 ± 0.03
343.2 K, 21900 kPa, Liquid	4.67 ± 0.03
343.2 K, 23400 kPa, Liquid	4.69 ± 0.03
343.2 K, 27700 kPa, Liquid	4.76 ± 0.03
343.2 K, 30400 kPa, Liquid	4.8 ± 0.03
